Ends that are not written are not given here. * marks the point of attachment. Palmitoyl = CCCCCCCCCCCCCCCC(=O)*
Key:
CD34+ cells = conditions: cited from earlier work
C57BL mice = experiment: G-CSF induced splenomegaly (spleen weight) in C57BL mice; format: in vivo
Procedure: All animals were maintained under conditions approved by the Institutional Animal Care and Use Committee at the Weizmann Institute. The study protocol was approved by the ethics committees at Weizmann Institute. In these experiments, 8 to 10 week old immune competent C57BL mice were used. All mice were kept in small cages (up to five animals per cage) and fed sterile food.
Mice were treated by daily subcutaneous injections of recombinant human G-CSF (Neupogen, Amgen) at a dose of 250 μg per kg per day for 7 days. To determine the spleen weight, mice were euthanized and spleens were harvested 7 days after the initiation of G-CSF treatment.
Dabigatran etexilate (Boehringer Ingelheim Pharma KG, Biberach, Germany) was administered orally at a dosage of 30 mg/kg. A final volume of 0.3 ml dissolved in DDW was administered daily.
The palmitoylated peptides: pal-RCLSSSAVANRS (PAR1 antagonist, SEQ ID NO: 1) and pal-SGRRYGHALR (PAR4 antagonist, SEQ ID NO: 2) were prepared by solid-phase peptide synthesis using in situ neutralization/HBTU by Hadar Biotec, Israel. The mice were treated by vehicle control, or with PAR1 antagonist or PAR4 antagonist at 0.5 mg/kg, intraperitoneally on daily basis.

Lin−Kit+Sca+ stem cell = experiment: Lin-Kit+Sca+ stem cell numbers in blood, spleen and BM by FACS; format: in vivo, mouse; conditions: FIG. 4
From the text: Membrane expression of different molecules on mouse bone marrow (BM), spleen and peripheral blood (PB) mononuclear cells (MNCs) was detected by flow cytometry, using one- or two-step staining procedures.
Cells were stained for lineage negative Lin− (CD3, B220, CD11b, Gr-1 and Ten-119 were biotinilated and detected by strepavidine Pe-Cy7), stem cell factor receptor positive (c-kit allophycocyanin+), stem cell antigen-1 positive (Sca-1 PE+) using Pharmigen, BD.
After staining, cells were washed and analyzed on LSRII (Becton Dickinson) using FlowJo software.
(§1) Comparisons between the different groups were evaluated using the Student's test. Data were expressed as mean±SD, and were considered statistically significant at p values of 0.05 or less.

bone marrow (BM) cells = experiment: Cellular composition of bone marrow by flow cytometry; format: in vivo, mouse; conditions: for B cells (B220) / Granulocytes (Gr-1) / Macrophages (CD11b) / T cells (CD3): bone marrow, C57BL mice, 7 days treatment, mean ± SD
Procedure: (§2) Membrane expression of different molecules on mouse bone marrow (BM) and spleen cells was detected by flow cytometry, using one- or two-step staining procedures.
(§3) Cellular composition of the hematopoietic compartment was stained by CD3-FITC, B220-PE, CD-11b allophycocyanin and Gr-1 FITC ((Pharmigen, BD).
(§4) After staining, cells were washed and analyzed LSRII (Becton Dickinson) using FlowJo software.
as §1

[1] = system: hematopoietic progenitors; experiment: Colony-forming assay of spleen cells (CFU/spleen); format: in vivo, mice; conditions: for precursor mobilization (CFU/spleen), enhancement as compared to non-treated mice: antagonist added to G-CSF treatment; for circulating CFU/spleen compared with C57BL/6 mice: at 7 days after G-CSF treatment, P<0.05 vs C57BL/6 (n=5), FIG. 3 legend
Procedure: All animals were maintained under conditions approved by the Institutional Animal Care and Use Committee at the Weizmann Institute. The study protocol was approved by the ethics committees at Weizmann Institute. In these experiments, 8 to 10 week old immune competent C57BL mice and C57BL hemophilic (C57BL Hem F8) mice were used. All mice were kept in small cages (up to five animals per cage) and fed sterile food. Cells were plated in 0.9% methylcellulose (Sigma Chemical Co.), 30% FCS, DMEM medium (Sigma Chemical Co.), 50 ng/ml stem cell factor (SCF), 5 ng/ml IL-3 (R&D Systems Inc.), 5 ng/ml GM-CSF (R&D Systems Inc.), and 2 U/ml erythropoietin (EPO; Orto Bio Tech, Don Mills, Ontario, Canada). Total spleen cells 5×10^5 were seeded in semisolid cultures. Colonies were scored 7 days later under an inverted microscope (CK2; Olympus), applying morphological criteria. To study the role of thrombin in the mobilization of hematopoietic progenitors, inventors enumerated these cells by their ability to form colonies in semi-solid media. Thus, after 7 days of treatment with G-CSF with or without PAR antagonists, the number of hematopoietic progenitors in the spleen was estimated by plating the low density mononuclear cells in methylcellulose containing appropriate nutrients and growth factors (see materials and experimental procedures, above). The plates were incubated for 7 days and the colonies were scored using a low magnification microscope. The number of progenitors mobilized into the spleen was presented as CFU/spleen (FIG. 3). […] However, the addition of PAR1 or PAR4 antagonists to G-CSF treatment led to further enhancement of precursor mobilization by 15.3 and 6.4 fold, respectively (as compared to non-treated mice). Likewise, in Factor VIII knock out (KO) mice, which have low thrombin levels due to the absence of Factor VIII, an enhancement of spleen colonies by a factor of 15.9 was recorded upon treatment with G-CSF.

spleen cells = experiment: Cellular composition of spleen by flow cytometry; format: in vivo, mouse; conditions: for B cells (B220) / Granulocytes (Gr-1) / Macrophages (CD11b) / T cells (CD3): spleen, C57BL mice, 7 days treatment, mean ± SD
Procedure: as §2, §3, §4, §1

HSPC = conditions: after a single injection; cited from earlier work
C57BL/6 mice = conditions: 7 day daily G-CSF treatment of C57BL/6 mice; cited from earlier work
[2] = with G-CSF for 7 days, antagonist 0.5 mg/kg intraperitoneally daily, FIG. 2

In the case of `c1cc(CN2CCCNCCNCCCNCC2)ccc1CN1CCCNCCNCCCNCC1` [AMD3100], the “mobilization capacity of G-CSF” value (CD34+ cells; in combination with G-CSF in mice) is listed as “significantly improves” and the “mobilization of CD34+ cells” value (CD34+ cells; on its own) is listed as “adequately”.

In the case of `CCCCCCOC(=O)NC(=N)c1ccc(NCc2nc3cc(C(=O)N(CCC(=O)OCC)c4ccccn4)ccc3n2C)cc1` [Dabigatran, Dabigatran etexilate, reference compound], the G-CSF induced splenomegaly (C57BL mice; in conjunction with G-CSF 250 μg per kg per day s.c. for 7 days, Dabigatran etexilate 30 mg/kg orally daily, FIG. 1) is reported as “marked enhancement”.

For “pal-RCLSSSAVANRS (Palmitoyl-RCLSSSAVANRS) [PAR1 antagonist]”, the G-CSF induced splenomegaly (C57BL mice; [2]) was “significantly enhanced”, the “Lin−Kit+Sca+ stem cell number in the blood and the spleen” value (Lin−Kit+Sca+ stem cell; co-treatment with G-CSF) was “highest increase” and the “Lin−Kit+Sca+ stem cell numbers in the bone marrow” value (Lin−Kit+Sca+ stem cell; co-treatment with G-CSF) was “clearly enhanced”. For the same molecule, the “Lin−Kit+Sca+ stem cells numbers in the blood and especially in the BM” value (Lin−Kit+Sca+ stem cell; without G-CSF treatment) was “marked enhancement”, the “B cells (B220)” value (bone marrow (BM) cells) was 13.42 ± 5% and the “Granulocytes (Gr-1)” value (bone marrow (BM) cells) was 38.26 ± 5.31%. For the same molecule, the “Macrophages (CD11b)” value (bone marrow (BM) cells) was 34.40 ± 5.16%, the “T cells (CD3)” value (bone marrow (BM) cells) was 2.28 ± 0.46% and the “precursor mobilization (CFU/spleen), enhancement as compared to non-treated mice” value ([1]; 7 days, C57BL mice, FIG. 3) was 15.3 fold. The “circulating CFU/spleen compared with C57BL/6 mice” value [1] was “more”, the “B cells (B220)” value (spleen cells) was 50.57 ± 4.36% and the “Granulocytes (Gr-1)” value (spleen cells) was 3.99 ± 2.42%. For the same molecule, the “Macrophages (CD11b)” value (spleen cells) was 2.96 ± 1.18% and the “T cells (CD3)” value (spleen cells) was 39.59 ± 3.41%.

For “pal-SGRRYGHALR (Palmitoyl-SGRRYGHALR) [PAR4 antagonist]”, the G-CSF induced splenomegaly (C57BL mice; [2]) was “significantly enhanced”, the “B cell numbers in the BM” value (bone marrow (BM) cells; Table 2) was “reduced” and the “B cells (B220)” value (bone marrow (BM) cells) was 16.16 ± 7.26%. The “Granulocytes (Gr-1)” value (bone marrow (BM) cells) was 50.58 ± 9.74%, the “Macrophages (CD11b)” value (bone marrow (BM) cells) was 41.06 ± 12.93% and the “T cells (CD3)” value (bone marrow (BM) cells) was 2.93 ± 1.54%. For the same molecule, the “precursor mobilization (CFU/spleen), enhancement as compared to non-treated mice” value ([1]; 7 days, C57BL mice, FIG. 3) was 6.4 fold, the “circulating CFU/spleen compared with C57BL/6 mice” value [1] was “more” and the “B cells (B220)” value (spleen cells) was 46.34 ± 4.23 %. The “Granulocytes (Gr-1)” value (spleen cells) was 4.41 ± 2.08%, the “Macrophages (CD11b)” value (spleen cells) was 3.53 ± 1.49% and the “T cells (CD3)” value (spleen cells) was 39.63 ± 3.52%. For the same molecule, the “B cell numbers in the spleen” value (spleen cells; summary of Table 1) was “reduced”.

In the case of zymosan, the “time to mobilize HSPC” value (HSPC) is listed as ≤ 1 h.

B1: G-CSF: recombinant human G-CSF (Neupogen, Amgen) (protein, UniProt P09919 31-207, looked up)
Granulocyte …: TPLGPASSLPQSFLLKCLEQVRKIQGDGAALQEKLVSECATYKLCHPEELVLLGHSLGIPWAPLSSCPSQALQLAGCLSQLHSGLFLYQGLLQALEGISPELGPTLDTLQLDVADFATTIWQQMEELGMAPALQPTQGAMPAFASAFQRRAGGVLVASHLQSFLEVSYRVLRHLAQP
modifications: filgrastim
For B1, the “hematopoietic stem cell (HSC) mobilization and splenomegaly” value (C57BL/6 mice) is listed as “induced”, the “number of granulocytes and macrophages in the BM” value (bone marrow (BM) cells; after G-CSF treatment, Table 2) is listed as “marked elevation” and the “B cells (B220)” value (bone marrow (BM) cells) is listed as 3.18 ± 1.01%. The “Granulocytes (Gr-1)” value (bone marrow (BM) cells) was 77.06 ± 7.38%, the “Macrophages (CD11b)” value (bone marrow (BM) cells) was 74.37 ± 7.79% and the “T cells (CD3)” value (bone marrow (BM) cells) was 0.98 ± 0.85%. The “enhancement of spleen colonies” value ([1]; Factor VIII knock out (KO) mice, upon treatment with G-CSF) was 15.9 fold, the “mobilization of progenitors (CFU/spleen), enhancement as compared to non-treated mice” value ([1]; G-CSF treatment alone, 7 days, C57BL mice, FIG. 3) was 2.8 fold and the “number of granulocytes and macrophages in the spleen” value (spleen cells; after G-CSF treatment, summary of Table 1) was “marked elevation”. The “B cells (B220)” value (spleen cells) was 47.37 ± 1.33%, the “Granulocytes (Gr-1)” value (spleen cells) was 10.21 ± 2.69% and the “Macrophages (CD11b)” value (spleen cells) was 8.16 ± 2.07%. The “T cells (CD3)” value (spleen cells) was 34.16 ± 3.17%.
